Here are results for ten compounds from patent publication US6890920B2, “Quaternary ammonium compounds” (Pharmacia & Upjohn Company, priority 1992, dated 2005).

Data set [1] has as its system methacholine-induced bronchoconstriction in Balb/c mice. Kind of data set: Bronchodilatory effect of inhaled compounds, Example VIII (% inhibition). The settings on record: inhalation of 1 mg/mL FBE; for % inhibition of bronchoconstriction after 10 min: 10 min after dosing; for % inhibition of bronchoconstriction after 36 h: 36 h after dosing. Type of data set: in vivo. From the text: Bronchoconstriction was induced in BALB/c mice by administration of methacholine.

The target of data set [2] is T1, muscarinic receptor M5 (Homo sapiens, UniProt P08912).
T1 construct: expressed in transfected cells
T1 sequence (P08912 1-532): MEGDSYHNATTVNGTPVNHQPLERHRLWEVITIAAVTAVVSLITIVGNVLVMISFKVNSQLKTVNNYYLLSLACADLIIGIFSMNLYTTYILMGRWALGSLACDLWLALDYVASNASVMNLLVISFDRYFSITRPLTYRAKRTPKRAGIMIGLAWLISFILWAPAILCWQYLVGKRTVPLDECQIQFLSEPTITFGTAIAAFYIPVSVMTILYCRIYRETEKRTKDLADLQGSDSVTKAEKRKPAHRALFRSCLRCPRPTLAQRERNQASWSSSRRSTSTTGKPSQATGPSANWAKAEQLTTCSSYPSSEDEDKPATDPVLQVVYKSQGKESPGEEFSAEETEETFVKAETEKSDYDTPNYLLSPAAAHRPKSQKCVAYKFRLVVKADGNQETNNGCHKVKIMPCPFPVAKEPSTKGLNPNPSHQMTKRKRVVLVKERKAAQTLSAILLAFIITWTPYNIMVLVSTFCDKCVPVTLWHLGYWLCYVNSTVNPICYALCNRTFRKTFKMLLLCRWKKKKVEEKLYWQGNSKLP
Kind of data set: Muscarinic receptor subtype M5 binding assay, radioligand displacement. Conditions: [3]H-methylscopolamine displacement, membranes from recombinant mammalian cell lines; read-out: Ki values, receptor subtype M5. Here is the method:
(§1) Muscarinic receptor subtype M1-M5 binding assays were carried out. Briefly, [3]H-methylscopolamine was allowed to bind to membranes from various recombinant mammalian cell lines, each with an over-expression of a particular receptor subtype.
(§2) Muscarinic receptor subtype M1-M5 binding assays were performed.
For orientation: Displacement assays read how much labelled ligand stays bound in the presence of the test substance.

The target in data set [3] is T2, muscarinic receptor M2 (Homo sapiens, UniProt P08172).
T2 construct: expressed in transfected cells
T2 sequence (P08172 1-466): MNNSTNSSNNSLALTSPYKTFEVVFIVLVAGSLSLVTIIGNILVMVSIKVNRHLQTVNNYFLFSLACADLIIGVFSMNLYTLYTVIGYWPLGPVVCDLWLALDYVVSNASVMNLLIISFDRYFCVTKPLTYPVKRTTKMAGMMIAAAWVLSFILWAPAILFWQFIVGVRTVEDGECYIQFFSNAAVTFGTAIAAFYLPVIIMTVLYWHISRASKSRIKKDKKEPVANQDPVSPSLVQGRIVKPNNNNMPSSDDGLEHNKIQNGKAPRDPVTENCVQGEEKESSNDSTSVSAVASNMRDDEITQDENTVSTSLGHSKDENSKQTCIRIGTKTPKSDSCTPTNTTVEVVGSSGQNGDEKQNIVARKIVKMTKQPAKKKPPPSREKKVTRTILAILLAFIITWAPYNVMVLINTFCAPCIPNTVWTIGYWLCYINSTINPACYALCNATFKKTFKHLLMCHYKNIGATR
Kind of data set: Muscarinic receptor subtype M2 binding assay, radioligand displacement. Conditions: [3]H-methylscopolamine displacement, membranes from recombinant mammalian cell lines. Here is the method: as §1, §2

Data set [4] concerns the target T3, muscarinic receptor M3 (Homo sapiens, UniProt P20309).
T3 construct: expressed in transfected cells
The experiment in a line: Muscarinic receptor subtype M3 binding assay, radioligand displacement. Conditions: [3]H-methylscopolamine displacement, membranes from recombinant mammalian cell lines; read-out: Ki values, receptor subtype M3. As for the experimental part:
as §1, §2

Data set [5] concerns the target T4, muscarinic receptor M4 (Homo sapiens, UniProt P08173).
T4 construct: expressed in transfected cells
T4 sequence (P08173 1-479): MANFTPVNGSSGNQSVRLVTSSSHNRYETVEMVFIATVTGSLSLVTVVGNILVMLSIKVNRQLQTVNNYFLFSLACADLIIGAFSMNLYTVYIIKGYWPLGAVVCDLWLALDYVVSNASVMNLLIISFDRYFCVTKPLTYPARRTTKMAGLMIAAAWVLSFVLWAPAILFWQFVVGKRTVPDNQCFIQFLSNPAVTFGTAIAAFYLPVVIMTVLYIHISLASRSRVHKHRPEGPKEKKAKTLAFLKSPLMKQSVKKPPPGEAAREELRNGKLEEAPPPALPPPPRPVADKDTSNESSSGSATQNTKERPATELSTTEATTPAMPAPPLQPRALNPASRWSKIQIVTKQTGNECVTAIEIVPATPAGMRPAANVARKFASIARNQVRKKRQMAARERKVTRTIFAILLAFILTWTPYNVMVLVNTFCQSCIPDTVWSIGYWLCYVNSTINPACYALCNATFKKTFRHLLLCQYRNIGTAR
Kind of data set: Muscarinic receptor subtype M4 binding assay, radioligand displacement. The settings on record: [3]H-methylscopolamine displacement, membranes from recombinant mammalian cell lines. Here is the method: as §1, §2

The target of data set [6] is T5, muscarinic receptor M1 (Homo sapiens, UniProt P11229).
T5 construct: expressed in transfected cells
T5 sequence (P11229 1-460): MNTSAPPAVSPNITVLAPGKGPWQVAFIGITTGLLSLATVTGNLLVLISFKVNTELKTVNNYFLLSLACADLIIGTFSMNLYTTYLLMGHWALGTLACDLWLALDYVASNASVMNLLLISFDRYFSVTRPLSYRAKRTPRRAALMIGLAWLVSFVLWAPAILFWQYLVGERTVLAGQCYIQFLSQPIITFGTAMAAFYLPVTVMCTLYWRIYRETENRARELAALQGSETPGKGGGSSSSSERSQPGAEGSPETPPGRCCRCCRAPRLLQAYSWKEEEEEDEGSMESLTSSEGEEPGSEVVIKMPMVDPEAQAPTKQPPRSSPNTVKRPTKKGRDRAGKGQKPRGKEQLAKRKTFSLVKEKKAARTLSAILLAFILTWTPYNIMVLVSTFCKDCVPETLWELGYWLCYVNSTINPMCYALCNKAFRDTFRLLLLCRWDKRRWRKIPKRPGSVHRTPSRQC
The experiment in a line: Muscarinic receptor subtype M1 binding assay, radioligand displacement. As for the experimental part: as §1, §2

A short description of data set [7]: Pharmacokinetics of inhaled tolterodine, plasma levels. It counts as in vivo, Balb/c mice. The settings on record: FIG. 7. Here is the method:
Blood samples were collected at 2.5 minutes, 15 minutes, 30 minutes, 1 hour or 2 hours after aerosol drug treatment. Blood samples were prepared as in example VI. Samples were analyzed using a PE SCIEX API 3000 mass spectrometer. Chromatographically, the analyte and the internal standard were resolved on a Zorbax ACE Phenyl column using a gradient elution. The limit of quantitation was 100 pg/mL.

Where [8] appears, read: [3]H-methylscopolamine displacement, membranes from recombinant mammalian cell lines.

Where two headings read alike, the source gives them in different places.

T3 sequence (P20309 whole entry): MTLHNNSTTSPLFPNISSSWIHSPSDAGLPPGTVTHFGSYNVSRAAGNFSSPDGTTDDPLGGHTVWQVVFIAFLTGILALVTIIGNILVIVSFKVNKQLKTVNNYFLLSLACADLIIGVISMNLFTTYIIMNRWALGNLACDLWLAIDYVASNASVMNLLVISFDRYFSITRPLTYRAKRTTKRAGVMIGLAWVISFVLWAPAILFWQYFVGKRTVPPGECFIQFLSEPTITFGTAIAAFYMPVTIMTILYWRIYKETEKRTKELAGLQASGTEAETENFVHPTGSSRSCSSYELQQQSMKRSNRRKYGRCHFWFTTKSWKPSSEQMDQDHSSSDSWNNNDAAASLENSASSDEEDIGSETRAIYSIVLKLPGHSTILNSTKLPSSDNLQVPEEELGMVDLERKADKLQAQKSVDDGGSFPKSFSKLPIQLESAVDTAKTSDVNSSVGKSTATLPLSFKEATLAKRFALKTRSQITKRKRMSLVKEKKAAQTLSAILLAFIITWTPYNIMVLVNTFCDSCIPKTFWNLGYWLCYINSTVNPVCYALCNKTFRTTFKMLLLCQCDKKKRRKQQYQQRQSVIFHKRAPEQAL

Turning to `CC(C)[N+](C)(CC[C@H](c1ccccc1)c1cc(CO)ccc1O)C(C)C.[I-]` [Example 8, (3R)-3-[2-Hydroxy-5-(hydroxymethyl)phenyl]-N,N-diisopropyl-N-methyl-3-phenylpropan-1-aminium iodide], in data set [1], the “% inhibition of bronchoconstriction after 10 min” value (“% inhibition … after 10 min” below) was 82%. Also, in data set [1] (24 h after dosing), the “% inhibition of bronchoconstriction after 24 h” value is 60%. Also, the “% inhibition of bronchoconstriction after 48 h” value in data set [1] (48 h after dosing) stood at 15%. Besides, the Ki in data set [2] is 0.68 nM; in data set [3], 1.08 nM; in data set [4] it was 0.92 nM; in data set [5], 1.07 nM; in data set [6] (setting [8]) it was 0.86 nM.
With `CCCC(=O)Oc1ccc(C)cc1[C@H](CC[N+](C)(C(C)C)C(C)C)c1ccccc1.[I-]` [Example 21, (3R)-3-[2-(Butyryloxy)-5-methylphenyl]-N,N-diisopropyl-N-methyl-3-phenylpropan-1-aminium iodide], the melting point was 175 °C (dec.).
As to `CC[N+]1(CCC(c2ccccc2)c2cc(C)ccc2O)CCCC1.[I-]` (centres unmarked) [Example 32, 1-Ethyl-1-(3-(2-hydroxy-5-methylphenyl)-3-phenylpropyl]pyrrolidinium iodide], in data set [1], the “% inhibition … after 10 min” value is on record as 100%. The “% inhibition of bronchoconstriction after 36 h” value (shortened to “% inhibition … after 36 h”) in data set [1] turned out to be 17%. Also, the inhibitory constant (Ki) in data set [2] came to 1.2 nM; in data set [3], 1.7 nM; in data set [4] it was 3.1 nM; in data set [5], 3.8 nM; in data set [6] (setting [8]), 1.1 nM.
Take `Cc1ccc(O)c(C(CC[N+]2(C)CCCCC2)c2ccccc2)c1.[I-]` (centres unmarked) [Example 33, 1-[3-(2-Hydroxy-5-methylphenyl)-3-phenylpropyl]-1-methylpiperidinium iodide]: the “% inhibition … after 10 min” value in data set [1] is on record as 100%. Also, the “% inhibition … after 36 h” value in data set [1] turned out to be 0%. Further, the inhibition constant Ki was determined as 0.9 nM in data set [2]; 1.7 nM in data set [3]; 3.2 nM in data set [4]; 3.6 nM in data set [5]; 1.1 nM in data set [6] (setting [8]).
Consider `COc1ccc(C)cc1[C@H](CC[N+](C)(C(C)C)C(C)C)c1ccccc1.[I-]` [Example 20, (3R)-N,N-diisopropyl-3-(2-methoxy-5-methylphenyl)-N-methyl-3-phenylpropan-1-aminium iodide], for which the melting point is 211 °C (dec.).
Regarding `Cc1ccc(O)c([C@H](CCN(C(C)C)C(C)C)c2ccccc2)c1` [Tolterodine, 2-[(1R)-3-(diisopropylamino)-1-phenylpropyl]-4-methylphenol, reference compound], the Plasma levels result in data set [7] (inhalation of nebulized solution at 0.1 mg/ml, limit of quantitation 100 pg/mL) was “at or below detection limits”. Moreover, the “absorption into the circulation” value in data set [7] (inhalation of nebulized solutions at 0.1, 0.5 or 1.0 mg/ml) is on record as “rapidly absorbed into the circulation”. The inhibitory constant (Ki) in data set [2] came out at 0.55 nM; in data set [5] it was 1.5 nM; in data set [6], 0.87 nM.
Regarding `Cc1ccc(O)c([C@H](CC[N+](C)(C(C)C)C(C)C)c2ccccc2)c1.[Br-]` [Example 3], the melting point is 189 to 191 °C (dec.). For the same compound, in data set [1], the “% inhibition … after 10 min” value stood at 100% and the “% inhibition … after 36 h” value worked out at 93%. For the same compound, in data set [2], the Ki stood at 0.26 nM. Also, in data set [3], the Ki came out at 0.52 nM. The Ki in data set [4] is 0.43 nM. Further, in data set [5], the inhibitory constant (Ki) is 0.72 nM. For the same compound, the Ki in data set [6] (setting [8]) was determined as 0.3 nM.
Take `CC(C)N(CC[C@H](c1ccccc1)c1cc(CO)ccc1O)C(C)C` [Hydroxytolterodine, 2-[(1R)-3-(diisopropylamino)-1-phenylpropyl]-4-(hydroxymethyl)phenol, reference compound]: the Ki in data set [2] was 0.48 nM; in data set [3], 0.33 nM; in data set [4] it was 1.4 nM; in data set [5] it was 1.4 nM; in data set [6] (setting [8]), 1.5 nM.
Regarding `Cc1ccc(O)c(C(CC[N+]2(C)CCCC2)c2ccccc2)c1.[I-]` (centres unmarked) [Example 31, 1-[3-(2-Hydroxy-5-Methylphenyl)-3-phenylpropyl]-1-methylpyrrolidinium iodide], in data set [1], the “% inhibition … after 10 min” value is recorded as 100%. Besides, the “% inhibition … after 36 h” value in data set [1] worked out at 0%. For the same compound, the inhibition constant Ki was found to be 1.6 nM in data set [2]; 2.2 nM in data set [3]; 3.3 nM in data set [4]; 4.2 nM in data set [5]; 1.2 nM in data set [6] (setting [8]).
Take `Cc1ccc(O)c(C(CC[N+]2(C)CCCCCC2)c2ccccc2)c1.[I-]` (centres unmarked) [Example 34, 1-[3-(2-Hydroxy-5-methylphenyl)-3-phenylpropyl]-1-methylazepanium iodide]: the “% inhibition … after 10 min” value in data set [1] was determined as 100%. The “% inhibition … after 36 h” value in data set [1] is reported as 0%. Also, the Ki stood at 1.8 nM in data set [2]; 1 nM in data set [3]; 4.7 nM in data set [4]; 2.9 nM in data set [5]; 1 nM in data set [6] (setting [8]).

For orientation: Ki means a measure of affinity in units of concentration, obtained from inhibition or displacement. What is called melting point is the temperature of the solid-liquid transition.
